Measured values published in US20020156236A1, “Binding sites for phosphotyrosine binding domains” (priority 1995, published 2002).
pIC50: −log10 of the molar value. Where a SMILES comes first, the peptide text is derived from it. Where no end group is shown, it is not given here.

Key:
[1] = target: T1, PTB domain/c-erbB2 binding (GST-PTB domain of SHC; c-erbB2 from SKBR3 lysate) (Homo sapiens, UniProt P29353); assay: biochemical
T1 construct: GST-PTB domain fusion proteins were expressed from recombinant baculovirus in sf9 cells; made in house; host or cells: Sf9 cells (recombinant baculovirus) for GST-PTB; c-erbB2 endogenous in SKBR3 cell lysate
T1 sequence (P29353 156-341): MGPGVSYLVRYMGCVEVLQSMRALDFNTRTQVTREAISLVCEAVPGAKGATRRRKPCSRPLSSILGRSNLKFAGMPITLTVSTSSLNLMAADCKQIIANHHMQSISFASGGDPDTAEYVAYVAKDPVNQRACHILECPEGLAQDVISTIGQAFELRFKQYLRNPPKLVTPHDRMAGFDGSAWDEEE

[2] = target: T2, SH2 domain of SHC (GST-SH2 domain fusion protein) (Homo sapiens, UniProt P29353); assay: Direct binding of biotinylated peptides to SH2 domain (streptavidin-coupled alkaline phosphatase detection); conditions: 500 nM biotinylated peptide, FIG. 3
T2 construct: 100 ng of GST-PTB domain or GST-SH2 domain fusion protein were incubated
T2 sequence (P29353 488-579 limits assumed): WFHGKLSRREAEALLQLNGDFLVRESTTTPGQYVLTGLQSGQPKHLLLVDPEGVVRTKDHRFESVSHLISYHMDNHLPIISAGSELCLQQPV

[3] = target: T3, GST-PTB domain fusion protein (Homo sapiens, UniProt P29353); assay: Direct binding of biotinylated peptides to PTB domain (streptavidin-coupled alkaline phosphatase detection); conditions: 500 nM biotinylated peptide, FIG. 3
T3 construct: 100 ng of GST-PTB domain or GST-SH2 domain fusion protein were incubated; made in house; host or cells: Sf9 cells (recombinant baculovirus)
T3 sequence (P29353 156-339 limits assumed): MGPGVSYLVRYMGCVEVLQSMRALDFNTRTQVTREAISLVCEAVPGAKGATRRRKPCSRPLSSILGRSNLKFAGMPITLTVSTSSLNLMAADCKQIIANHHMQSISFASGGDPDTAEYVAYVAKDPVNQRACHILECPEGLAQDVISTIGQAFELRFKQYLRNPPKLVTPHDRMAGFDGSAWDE
Method: (§1) The PTB domain was immunoprecipitated and the washed pellet assayed for the presence of bound peptide with streptavidin-coupled alkaline phosphatase. […] See, Kavanaugh and Williams, supra.
Peptides were biotinylated during synthesis and HPLC purified. 100 ng of GST-PTB domain or GST-SH2 domain fusion protein were incubated in 1×hybridization buffer with 500 nM biotinylated phosphopeptide for 1 hour at 4° C., immunoprecipitated as described in Example 2, above, washed once, and the pellets incubated with 0.25 units of streptavidin-alkaline phosphatase for 5 minutes at 4° C. The pellets were washed twice more, incubated for 3 minutes at room temperature with 1 mg/ml p-nitrophenylphosphate in 100 mM glycine, pH 10.1, 1 mM ZnCl2 and 1 mM MgCl2. The absorbance was measured at 405 nm.

[4] = target: T4, SHC PTB domain / pp145 derived from activated B cells (Homo sapiens, UniProt P29353); assay: Blocking of in vitro association of SHC PTB domain with pp145; type: binding
T4 sequence (P29353 156-339 limits assumed): T3 sequence (P29353 156-339 limits assumed)
Excerpt: as §1

[5] = Affinity (IC50), Table 3, ability to block PTB domain/c-erbB2 binding

In the case of `CC(C)C[C@H](NC(=O)[C@H](CC(N)=O)NC(=O)[C@H](CC(=O)O)NC(=O)[C@H](Cc1ccccc1)NC(=O)[C@H](C)NC(=O)[C@@H]1CCCN1C(=O)[C@H](CO)NC(=O)[C@H](Cc1ccccc1)NC(=O)[C@H](C)NC(=O)[C@@H]1CCCN1)C(=O)N[C@@H](COP(=O)(O)O)C(=O)N[C@@H](COP(=O)(O)O)C(=O)N[C@@H](Cc1c[nH]c2ccccc12)C(=O)N[C@@H](CC(=O)O)C(=O)N[C@@H](CCC(N)=O)C(=O)N[C@@H](CC(N)=O)C(=O)N[C@@H](CO)C(=O)N[C@@H](CO)C(=O)N[C@@H](CCC(=O)O)C(=O)N[C@@H](CCC(N)=O)C(=O)NCC(=O)O` [PAFSPAFDNL (pS) (pS) WDQNSSEQG] (HELM PEPTIDE1{P.A.F.S.P.A.F.D.N.L.[O=C([C@H](COP(=O)(O)O)N[*:1])[*:2]].[O=C([C@H](COP(=O)(O)O)N[*:1])[*:2]].W.D.Q.N.S.S.E.Q.G}$$$$V2.0), the pIC50 [1, 5] was less than 4.52.

For `CC(C)C[C@H](NC(=O)[C@H](CC(N)=O)NC(=O)[C@H](CC(=O)O)NC(=O)[C@H](Cc1ccccc1)NC(=O)[C@H](C)NC(=O)[C@@H]1CCCN1C(=O)[C@H](CO)NC(=O)[C@H](Cc1ccccc1)NC(=O)[C@H](C)NC(=O)[C@@H]1CCCN1)C(=O)N[C@@H](Cc1ccc(OP(=O)(O)O)cc1)C(=O)N[C@@H](Cc1ccc(OP(=O)(O)O)cc1)C(=O)N[C@@H](Cc1c[nH]c2ccccc12)C(=O)N[C@@H](CC(=O)O)C(=O)N[C@@H](CCC(N)=O)C(=O)N[C@@H](CC(N)=O)C(=O)N[C@@H](CO)C(=O)N[C@@H](CO)C(=O)N[C@@H](CCC(=O)O)C(=O)N[C@@H](CCC(N)=O)C(=O)NCC(=O)O` [PAFSPAFDNL (pY) (pY) WDQNSSEQG, PAFSPAFDNL(pY)(pY)WDQNSSEQG] (HELM PEPTIDE1{P.A.F.S.P.A.F.D.N.L.[O=C([C@H](Cc1ccc(OP(=O)(O)O)cc1)N[*:1])[*:2]].[O=C([C@H](Cc1ccc(OP(=O)(O)O)cc1)N[*:1])[*:2]].W.D.Q.N.S.S.E.Q.G}$$$$V2.0), the “binding to SH2 domain, in words” value [2] was “inability of the SH2 domain of SHC to bind”, the pIC50 ([1]; Apparent Inhibition (IC50)) was 7.30 and the “block of PTB/c-erbB2 interaction at one peptide concentration, in words” value ([1]; FIG. 2C, 300 nM peptides (legend says 500 nM)) was “completely block”. The pIC50 ([1]; approximate IC50, inhibition of PTB domain/c-erbB2 binding) was roughly 7.30, the “ability to block the PTB domain/c-erbB2 interaction after dephosphorylation” value ([1]; peptide dephosphorylated with tyrosine-specific phosphatases) was “unable to block” and the “peptide concentration at which substantial inhibition is shown” value ([1]; varying peptide concentrations, FIG. 2B lower blot) was 50 nM. The “direct binding to PTB domain, in words” value [3] was “able to bind directly” and the “blocking of association of SHC PTB domain with pp145” value [4] was “blocks association”.

`CC(C)C[C@H](NC(=O)[C@@H]1CCCN1C(=O)[C@H](CC(C)C)NC(=O)[C@@H](NC(=O)[C@@H]1CCCN1C(=O)[C@H](CC(=O)O)NC(=O)[C@H](CCC(=O)O)NC(=O)[C@H](CO)NC(=O)[C@H](Cc1ccc(OP(=O)(O)O)cc1)NC(=O)[C@H](CCCNC(=N)N)NC(=O)[C@H](CCC(N)=O)NC(=O)[C@H](CC(C)C)NC(=O)[C@@H]1CCCN1C(=O)[C@H](CO)NC(=O)[C@H](CC(C)C)NC(=O)[C@H](CC(=O)O)NC(=O)[C@H](Cc1c[nH]cn1)NC(=O)[C@@H]1CCCN1C(=O)[C@@H](N)CO)[C@@H](C)O)C(=O)O` [SPHDLSPLQR (pY) SEDPTLPL] (HELM PEPTIDE1{S.P.H.D.L.S.P.L.Q.R.[O=C([C@H](Cc1ccc(OP(=O)(O)O)cc1)N[*:1])[*:2]].S.E.D.P.T.L.P.L}$$$$V2.0) showed a pIC50 ([1]; Apparent Inhibition (IC50)) of less than 4.00.

Compound `CC(C)C[C@H](NC(=O)[C@@H]1CCCN1C(=O)[C@H](C)NC(=O)[C@@H](NC(=O)[C@H](Cc1ccc(OP(=O)(O)O)cc1)NC(=O)CNC(=O)[C@H](CC(=O)O)NC(=O)[C@@H](NC(=O)[C@H](CCC(=O)O)NC(=O)[C@@H]1CCCN1C(=O)[C@@H]1CCCN1C(=O)[C@H](CC(C)C)NC(=O)[C@@H]1CCCN1C(=O)[C@H](CC(C)C)NC(=O)[C@@H](N)[C@@H](C)O)[C@@H](C)O)C(C)C)C(=O)N[C@@H](C)C(=O)N[C@@H](CS)C(=O)N[C@@H](CO)C(=O)N1CCC[C@H]1C(=O)N[C@@H](CCC(N)=O)C(=O)O` [TLPLPPETDG (pY) VAPLACSPQ, TLPLPPETDG(pY)VAPLACSPQ] (HELM PEPTIDE1{T.L.P.L.P.P.E.T.D.G.[O=C([C@H](Cc1ccc(OP(=O)(O)O)cc1)N[*:1])[*:2]].V.A.P.L.A.C.S.P.Q}$$$$V2.0) has a pIC50 ([1]; Apparent Inhibition (IC50)) of less than 4.00.

For PAFSPAFDNLEEWDQNSSEQG, the pIC50 [1, 5] was less than 4.52.
